According to patent publication US5352804A, “Isolation and structure of Halistatin 2” (Arizona Board of Regents, a body corporate, acting on …, priority 1993, dated 1994):
Read-outs that look alike come from different tables or passages of the source.

What was measured:
Assay in all cases: NCI human tumor in vitro primary screen
Format in all cases: cell-based
[1] = system: U251; settings: U-251, CNS cancer
Text: (§1) Only two hundred years ago, many diseases ravaged humankind. Many of these diseases now have been controlled or eradicated. In the development of the means to treat or control these diseases, work with the appropriate common experimental animals was of critical importance. With the various types of cancers, and with the HIV virus, such work is presently ongoing. The research for the treatment of various types of cancer is coordinated in the United States by the National Cancer Institute (NCI). NCI, as a government entity, has been charged with assisting anti-cancer research. To establish whether a substance has anti cancer activity, NCI has established a variety of protocols, one of which involves testing the candidate substance against a cell line panel containing 60 human tumor cell lines. This protocol has been verified and is generally accepted throughout the scientific community. This protocol and the established statistical means of evaluating the results obtained therefrom have been fully described in the literature. See Principles & Practice of Oncology PPO Updates, Volume 3, Number 10, Oct. 1989, by Michael R. Boyd, M.D., Ph.D., for an indepth description of the test protocol. The statistical analysis is explained in "Display and Analysis of Patterns of Differential Activity of Drugs Against Human Tumor Cell Lines: Development of Means Graph and COMPARE Algorithm" Journal of the National Cancer Institute Reports Vol. 81, No. 14, Pg. 1088, Jul. 14, 1989, by K. D. Paull et al. Both of these references are incorporated herein by this reference thereto.
(§2) Biological Testing; Data Display and Analysis; Screening Data Summary. Freshly isolated halistatin 2 was tested in the NCI's human tumor, disease-oriented in vitro primary screen, and data calculations performed. Table 3 is a composite prepared from mean graphs constructed from the averaged GI50 values from quadruplicate screenings of Halistatin 2.

[2] = system: A549/ATCC; settings: non-small cell lung cancer
Text: as §1, §2

[3] = system: OVCAR-3; settings: ovarian cancer
Text: as §1, §2

[4] = system: SF-539; settings: CNS cancer
Text: as §1, §2

[5] = system: RXF-393
Text: as §1, §2

[6] = system: HOP-18; settings: non-small cell lung cancer
Text: as §1, §2

[7] = system: SK-MEL-5; settings: melanoma
Text: as §1, §2

[8] = system: A498; settings: renal cancer
Text: as §1, §2

[9] = system: SF-295; settings: CNS cancer
Text: as §1, §2

[10] = system: K-562; settings: K562, leukemia
Text: as §1, §2

[11] = system: CCRF-CEM; settings: leukemia
Text: as §1, §2

[12] = system: OVCAR-4; settings: ovarian cancer
Text: as §1, §2

[13] = system: UACC-62; settings: melanoma
Text: as §1, §2

[14] = system: MALME-3M; settings: melanoma
Text: as §1, §2

[15] = system: NCI-H226
Text: as §1, §2

[16] = system: OVCAR-5; settings: ovarian cancer
Text: as §1, §2

[17] = system: LXFL 529
Text: as §1, §2

[18] = read-out: Log10 GI50 (converted)
[19] = read-out: Log10 TGI (converted)
[20] = read-out: averaged negative log10 GI50 (converted)
[21] = non-small cell lung cancer, read-out: averaged negative log10 GI50 (converted)

SMILES: C=C1CC2CCC34CC5OC6C(O3)C3OC(CCC3OC6(O)C5O4)CC(=O)OC3C(CC4OC(CCC1O2)CC(C)C4=C)OC1CC2OC4(CC2OC1C3C)CC1OC2(CC(C)C3OC5CC(C(O)CO)OC5CC3O2)CC(C)C1O4 (stereo not drawn) [halistatin 2]
- GI50 [1, 18]: 0.479 nM
- IC (TGI) [1, 19]: 9.33 nM
- GI50 [1, 20]: 0.479 nM
- GI50 [2, 18]: 1.82 nM
- IC (TGI) [2, 19]: 10 nM
- GI50 [2, 20]: 1.82 nM
- GI50 [3, 18]: 0.282 nM
- IC (TGI) [3, 19]: 1.58 nM
- GI50 [3, 20]: 0.282 nM
- GI50 [4, 18]: 0.324 nM
- IC (TGI) [4, 19]: 1.51 nM
- GI50 [4, 20]: 0.324 nM
- GI50 ([5]; RXF 393, printed RXP-393, renal cancer, read-out: Log10 GI50 (converted)): 0.479 nM
- IC (TGI) ([5]; RXF 393, printed RXP-393, renal cancer, read-out: Log10 TGI (converted)): 3.09 nM
- GI50 ([5]; RXF-393, renal cancer, read-out: averaged negative log10 GI50 (converted)): 0.479 nM
- GI50 [6, 18]: 2.82 nM
- IC (TGI) [6, 19]: 10 nM
- GI50 [6, 20]: 2.82 nM
- GI50 [7, 18]: 0.182 nM
- IC (TGI) [7, 19]: 1.82 nM
- GI50 [7, 20]: 0.182 nM
- GI50 [8, 18]: 1.82 nM
- IC (TGI) [8, 19]: 10 nM
- GI50 [8, 20]: 1.82 nM
- GI50 [9, 18]: 0.182 nM
- IC (TGI) [9, 19]: 5.25 nM
- GI50 [9, 20]: 0.182 nM
- GI50 [10, 18]: 0.229 nM
- IC (TGI) [10, 19]: 2.57 nM
- GI50 [10, 20]: 0.229 nM
- GI50 [11, 18]: 0.2 nM
- IC (TGI) [11, 19]: 4.27 nM
- GI50 [11, 20]: 0.2 nM
- GI50 [12, 18]: 7.76 nM
- IC (TGI) [12, 19]: 10 nM
- GI50 [12, 20]: 7.76 nM
- GI50 [13, 18]: 0.339 nM
- IC (TGI) [13, 19]: 10 nM
- GI50 [13, 20]: 0.339 nM
- GI50 [14, 18]: 0.229 nM
- IC (TGI) [14, 19]: 10 nM
- GI50 [14, 20]: 0.229 nM
- GI50 ([15]; NCl-H226, non-small cell lung cancer, read-out: Log10 GI50 (converted)): 0.724 nM
- IC (TGI) ([15]; NCl-H226, non-small cell lung cancer, read-out: Log10 TGI (converted)): 3.72 nM
- GI50 [15, 21]: 0.724 nM
- GI50 [16, 18]: 1.82 nM
- IC (TGI) [16, 19]: 10 nM
- GI50 [16, 20]: 1.82 nM
- GI50 ([17]; LXFL529, non-small cell lung cancer, read-out: Log10 GI50 (converted)): 0.447 nM
- IC (TGI) ([17]; LXFL529, non-small cell lung cancer, read-out: Log10 TGI (converted)): 10 nM
- GI50 [17, 21]: 0.447 nM
